# Like-named read-outs stand apart in the source and are kept apart here.
# Key:
# [1] = cited from earlier work
# [2] = cited from earlier work; remark: listed apart in the source
# [3] = system: Mould; test: Inhibitory effects of AITC, diacetyl and cinnamaldehyde vapour; format: cell-based, mould isolated from mung bean sprouts; settings: 25° C.
# Description: (§1) P. fluorescens was selected as a model spoilage bacteria, while mould and yeast were isolated from spoiled mung bean sprouts with bacteria excluded by cultivating in potato dextrose broth (PDB) (Sigma, Oakville, ON, Canada) at pH 5.6±0.2. Yeast and P. fluorescens stocks were cultivated in PDB and trypticase soy broth (TSB) (Bacto, BD, Sparks, USA), respectively, at 30° C. for 24 h and diluted with sterile saline solution (NaCl, 8.5 g/L water) to a concentration of 10^6 CFU/mL. An aliquot of 50 μL of the prepared yeast or bacteria suspension was spread on potato dextrose agar (PDA) (Difco, BD, Sparks, USA) or trypticase soy agar (TSA) (Bacto, BD, Sparks, USA), respectively, in 5 cm diameter petri dishes (Fisher Scientific, Ottawa, ON, Canada). Mycelium of mould was inoculated as one spot at the center of the PDA dishes. Two freshly inoculated petri dishes of same microorganism, with their lids removed, were placed in a one-liter glass jar. […] The growth of the microorganisms was monitored by the colony formation for 3 days.
# [4] = Release of diacetyl and AITC vapours from PEG blends into jar headspace (automatic headspace sampling, GC); format: physicochemical; settings: from 4:1 PEG400:PEG10K
# Description: PEG400 and PEG10K were blended at 1:4, 2:3, 3:2 and 4:1 (w/w) ratios. All PEG blends (20±1 g) were heated to 90° C. in a 20 mL glass vial for 20 min to ensure the polymers were melted and thoroughly mixed with the aid of a magnetic stir bar. […] The vials were capped, kept in a 75° C. oven and continuously being stirred with the magnetic stir bar for 15 min. The molten mixtures were injected into a mould fabricated from glass (2 cm×1.5 cm×0.1 cm) and allowed to set. One face of the mould was lined with aluminum tape (adhesive side facing away from PEG), which acted as a baking material for the solidified PEG. Upon solidification, diacetyl/AITC impregnated PEG sheeting was formed.
# With the aid of a controller (SRI Instruments Inc., Las Vegas, Nev., USA), the headspace air in the glass jar was sampled automatically by means of a vacuum pump and two stream selection valves (Model EMTCA-CE, VICI Valco Instruments Co. Inc., Houston, Texax, USA), and injected into a gas chromatograph equipped with flame ionization detector (GC 6890, Agilent Technologies Inc., Santa Clara, Calif., USA.). Both the detector and oven temperatures were set at 150° C. The flow rates of the carrier gas (N2), compressed air and hydrogen were 30 mL/min, 200 mL/min and 30 mL/min, respectively. Retention time and peak area were analyzed by using chromatographic software (Peak Simple 393-32 bit, SRI Instruments, Torrance, Calif., USA). After each sampling, an equal amount of dry air was injected back into the jar to maintain the interior pressure at one atmosphere.
# Diacetyl or AITC release profiles were generated by plotting Mn versus time.
# The release profiles of the antimicrobial compounds were fitted in a model which combines first order kinetics and zero order kinetics: C=Ce×(1−e^−kt)+αt (Eq. 3) where C is the compound concentration at time t; Ce is the equilibrium concentration for diffusion; k is the diffusion rate constant; α is the rate of zero order kinetics. Models are fitted to the data before reaching the equilibrium.
# [5] = system: Yeast; test: Inhibitory effects of AITC, diacetyl and cinnamaldehyde vapour; format: cell-based, yeast isolated from mung bean sprouts
# Description: as §1
# [6] = system: P. Fluorescens; test: as above; format: cell-based, Pseudomonas fluorescens P33; settings: 25° C.
# Description: as §1
# [7] = Amount 1 mg in one-liter jar, 25° C.
# [8] = Amount 2 mg in one-liter jar, 25° C.
# [9] = Amount 3 mg in one-liter jar, 25° C.
structure (smiles),measurement,setting,value
"Cc1ccc(C(C)C)cc1O [carvacrol, 5-isopropyl-2-methylphenol]",vapor pressure,[1]; 22° C.,0.0042 kPa
same,vapor pressure,[1]; 25° C.,0.0087 kPa
same,solubility in water,[2],low solubility in water
"CC(=O)C(C)=O [Diacetyl, 2,3-butanedione]","Mould day1, visual colony number",[3]; Amount 1 mg in one-liter jar,+ (less than 15)
same,"Mould day2, visual colony number",[3]; Amount 1 mg in one-liter jar,+ (less than 15)
same,"Mould day3, visual colony number",[3]; Amount 1 mg in one-liter jar,+ (less than 15)
same,concentration that inhibited the growth of mould for three days,[3]; vapour in one-liter jar,2 mg/L
same,Saturated vapor pressure,[1]; 5° C.,~2400 Pa
same,vapor pressure (volatility),[1]; 20° C.,6.9 kPa
same,Saturated vapor pressure,[1]; 45° C.,~20100 Pa
same,Ce,"[4]; 0 μL water, 5° C.",0.631 mg/L
same,k,"[4]; 0 μL water, 5° C.",0.00764 h⁻¹
same,α,"[4]; 0 μL water, 5° C.",0.000149 h⁻¹
same,Ce,"[4]; 0 μL water, 25° C.",1.965 mg/L
same,k,"[4]; 0 μL water, 25° C.",0.00837 h⁻¹
same,α,"[4]; 0 μL water, 25° C.",0.000258 h⁻¹
same,maximum released after 42 h,[4]; 5° C.,1.98 mg
same,Ce,"[4]; 10 μL water, 5° C.",1.074 mg/L
same,k,"[4]; 10 μL water, 5° C.",0.00484 h⁻¹
same,α,"[4]; 10 μL water, 5° C.",0.000236 h⁻¹
same,Ce,"[4]; 10 μL water, 25° C.",1.701 mg/L
same,k,"[4]; 10 μL water, 25° C.",0.01425 h⁻¹
same,α,"[4]; 10 μL water, 25° C.",0.00034 h⁻¹
same,maximum released after 42 h,[4]; 25° C.,2.85 mg
same,Ce,"[4]; 100 μL water, 5° C.",1.418 mg/L
same,k,"[4]; 100 μL water, 5° C.",0.00159 h⁻¹
same,α,"[4]; 100 μL water, 5° C.",0.000253 h⁻¹
same,Ce,"[4]; 100 μL water, 25° C.",1.901 mg/L
same,k,"[4]; 100 μL water, 25° C.",0.01281 h⁻¹
same,α,"[4]; 100 μL water, 25° C.",0.000272 h⁻¹
same,Ce,"[4]; 1000 μL water, 5° C.",0.151 mg/L
same,k,"[4]; 1000 μL water, 5° C.",0.01321 h⁻¹
same,α,"[4]; 1000 μL water, 5° C.",0.000301 h⁻¹
same,Ce,"[4]; 1000 μL water, 25° C.",2.156 mg/L
same,k,"[4]; 1000 μL water, 25° C.",0.00728 h⁻¹
same,α,"[4]; 1000 μL water, 25° C.",0.000279 h⁻¹
same,"Yeast day1, visual colony number",[5]; [7],+ (less than 15)
same,"Yeast day2, visual colony number",[5]; [7],+ (less than 15)
same,"Yeast day3, visual colony number",[5]; [7],+ (less than 15)
same,"Yeast day1, visual colony number",[5]; [8],+ (less than 15)
same,"Yeast day2, visual colony number",[5]; [8],+ (less than 15)
same,"Yeast day3, visual colony number",[5]; [8],+ (less than 15)
same,"Yeast day2, visual colony number",[5]; [9],+ (less than 15)
same,"Yeast day3, visual colony number",[5]; [9],+ (less than 15)
same,MIC,"[5]; established on yeast, mould and P. fluorescens from Table 8, read-out: minimum inhibition concentration (MIC)",4 µg/mL
same,effective concentration against yeast,"[5]; vapour in one-liter jar, 25° C.",4 mg/L
same,"P. Fluorescens day1, visual colony number",[6]; Amount 1 mg in one-liter jar,+ (less than 15)
same,"P. Fluorescens day2, visual colony number",[6]; Amount 1 mg in one-liter jar,+ (less than 15)
same,effective concentration against P. fluorescens,[6]; vapour in one-liter jar,2 mg/L
